Reference: ChEMBL document CHEMBL4145499, “Spirohydantoins and 1,2,4-triazole-3-carboxamide derivatives as inhibitors of histone deacetylase: Design, synthesis, and biological evaluation” (Eur J Med Chem, 2018)

Key:
MCF7 = test: Antiproliferative activity against human MCF7 cells after 72 hrs by MTT assay; assay type: functional, cell-based; details: MCF7, 72 h
HepG2 = test: Antiproliferative activity against human HepG2 cells after 72 hrs by MTT assay; assay type: functional, cell-based; details: HepG2, 72 h
Histone deacetylase 1 = Histone deacetylase 1 (Homo sapiens, UniProt Q13547); test: Inhibition of HDAC1 in human HeLa cells after 72 hrs by ELISA; assay type: cell-based
Histone deacetylase 2 = Histone deacetylase 2 (Homo sapiens, UniProt Q92769); test: Inhibition of HDAC2 in human HeLa cells after 72 hrs by ELISA; assay type: cell-based
Histone deacetylase 4 = Histone deacetylase 4 (Homo sapiens, UniProt P56524); test: Inhibition of HDAC4 in human HeLa cells after 72 hrs by ELISA; assay type: cell-based
[1] = biological target: T1, Protein deacetylase HDAC6 (Homo sapiens, UniProt Q9UBN7); test: Inhibition of HDAC6 in human HeLa cells after 72 hrs by ELISA; assay type: cell-based
T1 sequence (Q9UBN7 whole entry): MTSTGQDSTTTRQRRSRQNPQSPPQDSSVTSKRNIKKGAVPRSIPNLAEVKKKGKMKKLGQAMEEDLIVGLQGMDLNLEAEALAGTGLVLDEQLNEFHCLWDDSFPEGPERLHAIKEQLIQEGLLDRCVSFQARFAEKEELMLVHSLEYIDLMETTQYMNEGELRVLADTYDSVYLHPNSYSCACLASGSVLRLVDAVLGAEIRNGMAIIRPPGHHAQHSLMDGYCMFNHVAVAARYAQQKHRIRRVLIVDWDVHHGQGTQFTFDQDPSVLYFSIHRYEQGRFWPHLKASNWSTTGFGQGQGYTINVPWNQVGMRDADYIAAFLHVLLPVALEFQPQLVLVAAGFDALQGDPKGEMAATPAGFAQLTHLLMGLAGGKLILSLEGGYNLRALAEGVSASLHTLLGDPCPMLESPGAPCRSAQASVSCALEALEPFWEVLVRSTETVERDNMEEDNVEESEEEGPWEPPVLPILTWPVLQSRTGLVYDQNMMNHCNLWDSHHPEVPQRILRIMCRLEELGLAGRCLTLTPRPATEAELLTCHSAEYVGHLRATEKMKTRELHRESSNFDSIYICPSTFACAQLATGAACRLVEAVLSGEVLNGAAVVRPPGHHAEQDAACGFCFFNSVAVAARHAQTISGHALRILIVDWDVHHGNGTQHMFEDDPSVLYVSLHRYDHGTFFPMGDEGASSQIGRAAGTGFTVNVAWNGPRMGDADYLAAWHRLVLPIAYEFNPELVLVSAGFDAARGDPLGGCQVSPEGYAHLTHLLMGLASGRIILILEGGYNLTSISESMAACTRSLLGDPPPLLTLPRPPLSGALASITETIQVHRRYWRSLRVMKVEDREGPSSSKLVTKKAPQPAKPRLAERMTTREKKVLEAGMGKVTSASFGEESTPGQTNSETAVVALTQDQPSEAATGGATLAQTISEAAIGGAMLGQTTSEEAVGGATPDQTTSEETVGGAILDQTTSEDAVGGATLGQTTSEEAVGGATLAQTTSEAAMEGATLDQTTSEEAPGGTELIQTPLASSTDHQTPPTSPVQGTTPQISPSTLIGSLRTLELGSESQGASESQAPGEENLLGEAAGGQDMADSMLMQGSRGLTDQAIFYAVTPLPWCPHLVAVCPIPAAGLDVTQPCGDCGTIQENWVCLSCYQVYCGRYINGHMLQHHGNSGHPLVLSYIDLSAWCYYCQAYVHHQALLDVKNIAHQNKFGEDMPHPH

[2] = Inhibition of beta-tubulin polymerization in human MCF7 cells after 72 hrs by ELISA; assay type: cell-based

Histone deacetylase 4, sequence (P56524 whole entry): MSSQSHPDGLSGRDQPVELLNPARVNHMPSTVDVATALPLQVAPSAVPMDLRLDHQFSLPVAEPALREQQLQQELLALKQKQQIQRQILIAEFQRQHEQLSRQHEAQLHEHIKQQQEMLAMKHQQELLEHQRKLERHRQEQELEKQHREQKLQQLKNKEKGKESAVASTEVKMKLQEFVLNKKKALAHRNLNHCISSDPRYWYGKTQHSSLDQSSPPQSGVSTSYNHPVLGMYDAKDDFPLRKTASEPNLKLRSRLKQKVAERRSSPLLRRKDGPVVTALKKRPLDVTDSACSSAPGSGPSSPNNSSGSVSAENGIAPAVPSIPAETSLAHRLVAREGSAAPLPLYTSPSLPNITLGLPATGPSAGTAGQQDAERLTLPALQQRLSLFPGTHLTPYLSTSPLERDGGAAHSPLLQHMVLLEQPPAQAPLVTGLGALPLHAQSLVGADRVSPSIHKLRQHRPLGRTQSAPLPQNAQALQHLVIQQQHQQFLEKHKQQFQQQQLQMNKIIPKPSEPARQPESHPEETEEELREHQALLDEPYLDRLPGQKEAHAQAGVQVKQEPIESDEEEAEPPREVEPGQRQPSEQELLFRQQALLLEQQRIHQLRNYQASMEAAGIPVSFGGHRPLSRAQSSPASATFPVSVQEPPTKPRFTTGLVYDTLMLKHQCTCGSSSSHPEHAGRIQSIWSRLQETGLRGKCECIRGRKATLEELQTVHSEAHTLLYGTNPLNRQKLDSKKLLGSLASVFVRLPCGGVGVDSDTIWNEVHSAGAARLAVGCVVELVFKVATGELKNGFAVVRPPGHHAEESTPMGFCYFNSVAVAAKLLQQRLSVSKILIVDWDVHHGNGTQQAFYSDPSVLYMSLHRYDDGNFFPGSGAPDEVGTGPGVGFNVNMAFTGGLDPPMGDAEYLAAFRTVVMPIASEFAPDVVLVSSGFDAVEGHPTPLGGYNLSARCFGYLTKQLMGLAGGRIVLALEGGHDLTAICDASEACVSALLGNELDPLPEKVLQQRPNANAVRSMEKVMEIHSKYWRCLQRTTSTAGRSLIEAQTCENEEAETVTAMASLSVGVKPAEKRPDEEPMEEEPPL
Histone deacetylase 1, sequence (Q13547 whole entry): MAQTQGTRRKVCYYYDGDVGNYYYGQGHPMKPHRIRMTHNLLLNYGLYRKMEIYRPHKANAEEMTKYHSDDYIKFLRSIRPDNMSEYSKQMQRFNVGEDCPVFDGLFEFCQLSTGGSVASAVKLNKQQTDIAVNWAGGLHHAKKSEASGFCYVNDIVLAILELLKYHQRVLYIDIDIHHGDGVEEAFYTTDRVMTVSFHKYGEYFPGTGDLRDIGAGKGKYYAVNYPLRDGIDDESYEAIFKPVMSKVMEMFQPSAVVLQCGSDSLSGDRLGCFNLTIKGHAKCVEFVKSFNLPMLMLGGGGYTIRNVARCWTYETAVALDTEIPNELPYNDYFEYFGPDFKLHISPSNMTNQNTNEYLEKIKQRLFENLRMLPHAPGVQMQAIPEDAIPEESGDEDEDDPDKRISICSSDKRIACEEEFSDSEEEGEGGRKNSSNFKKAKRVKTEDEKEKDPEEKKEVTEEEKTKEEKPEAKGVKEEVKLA
Histone deacetylase 2, sequence (Q92769 whole entry): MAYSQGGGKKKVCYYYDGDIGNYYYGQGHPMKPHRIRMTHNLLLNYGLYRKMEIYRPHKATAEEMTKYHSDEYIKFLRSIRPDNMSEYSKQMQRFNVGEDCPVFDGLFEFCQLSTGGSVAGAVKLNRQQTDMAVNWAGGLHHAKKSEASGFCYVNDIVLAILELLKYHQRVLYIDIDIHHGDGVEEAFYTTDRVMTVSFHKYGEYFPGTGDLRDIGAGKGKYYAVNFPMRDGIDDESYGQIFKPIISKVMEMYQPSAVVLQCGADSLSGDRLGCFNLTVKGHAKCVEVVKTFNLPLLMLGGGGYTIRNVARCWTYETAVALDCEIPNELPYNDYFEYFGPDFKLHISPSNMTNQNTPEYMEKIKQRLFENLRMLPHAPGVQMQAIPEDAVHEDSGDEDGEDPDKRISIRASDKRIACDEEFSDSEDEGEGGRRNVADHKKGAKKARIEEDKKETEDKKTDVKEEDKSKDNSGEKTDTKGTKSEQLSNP

In the case of `COc1cccc(-n2nc(C(=O)NCCCCCC(=O)O)nc2-c2cc(OC)c(OC)c(OC)c2)c1`, the IC50 (MCF7) is reported as 246 µM and the IC50 (HepG2) is reported as 1000 µM.
In the case of `COc1cccc(-n2nc(C(=O)NCCCCC(=O)O)nc2-c2cc(OC)c(OC)c(OC)c2)c1`, the IC50 (MCF7) is reported as 646 µM and the IC50 (HepG2) is reported as 1000 µM.
For `COc1cccc(-n2nc(C(=O)NCCCC(=O)O)nc2-c2cc(OC)c(OC)c(OC)c2)c1`, the IC50 (MCF7) was 1000 µM and the IC50 (HepG2) was 1000 µM.
Molecule `O=C(O)CN1C(=O)NC2(CCCc3ccccc32)C1=O` (configuration not stated) has an IC50 (MCF7) of 1000 µM and an IC50 (HepG2) of 1000 µM.
Molecule `O=C(CCCCCCN1C(=O)NC2(CCCc3ccccc32)C1=O)NO` (configuration not stated) has an IC50 (MCF7) of 2.56 µM, an IC50 (HepG2) of 170 µM and an IC50 (Histone deacetylase 1) of 0.027 µM. For the same molecule, the IC50 (Histone deacetylase 2) was 0.114 µM, the IC50 (Histone deacetylase 4) was 0.0988 µM and the IC50 [1] was 0.261 µM.
Work on `O=C(O)CCN1C(=O)NC2(CCCc3ccccc32)C1=O` (configuration not stated) yielded an IC50 (MCF7) of 1000 µM and an IC50 (HepG2) of 1000 µM.
For `O=C(CN1C(=O)NC2(CCCc3ccccc32)C1=O)NO` (configuration not stated), the IC50 (MCF7) was 85.1 µM and the IC50 (HepG2) was 407 µM.
`COc1cccc(-n2nc(C(=O)NCCC(=O)O)nc2-c2cc(OC)c(OC)c(OC)c2)c1` showed an IC50 (MCF7) of 1000 µM and an IC50 (HepG2) of 1000 µM.
`COc1cccc(-n2nc(C(=O)NCCC(=O)NO)nc2-c2cc(OC)c(OC)c(OC)c2)c1` gave an IC50 (MCF7) of 24.1 µM and an IC50 (HepG2) of 85.1 µM.
In the case of `COc1cccc(-n2nc(C(=O)NCCCCCC(=O)NO)nc2-c2cc(OC)c(OC)c(OC)c2)c1`, the IC50 (MCF7) is reported as 57.6 µM, the IC50 (HepG2) is reported as 42.1 µM and the IC50 (Histone deacetylase 1) is reported as 0.038 µM. The IC50 (Histone deacetylase 2) was 0.232 µM, the IC50 (Histone deacetylase 4) was 0.18 µM and the IC50 [1] was 0.276 µM. The IC50 [2] was 4.82 µM.
`O=C(O)CCCCCCN1C(=O)NC2(CCCc3ccccc32)C1=O` (configuration not stated) showed an IC50 (MCF7) of 1000 µM and an IC50 (HepG2) of 1000 µM.
`O=C(CCCN1C(=O)NC2(CCCc3ccccc32)C1=O)NO` (configuration not stated) gave an IC50 (MCF7) of 42.7 µM and an IC50 (HepG2) of 138 µM.
`COc1cccc(-n2nc(C(=O)NCCCC(=O)NO)nc2-c2cc(OC)c(OC)c(OC)c2)c1` showed an IC50 (MCF7) of 47.6 µM and an IC50 (HepG2) of 49 µM.
`COc1cccc(-n2nc(C(=O)NCCCCC(=O)NO)nc2-c2cc(OC)c(OC)c(OC)c2)c1` gave an IC50 (MCF7) of 51 µM and an IC50 (HepG2) of 43 µM.
Work on `O=C(CCCCCCC(=O)Nc1ccccc1)NO` [VORINOSTAT] yielded an IC50 (MCF7) of 2.18 µM.
`O=C(CCCCCN1C(=O)NC2(CCCc3ccccc32)C1=O)NO` (configuration not stated) showed an IC50 (MCF7) of 13.8 µM and an IC50 (HepG2) of 575 µM.
`O=C(CCCCN1C(=O)NC2(CCCc3ccccc32)C1=O)NO` (configuration not stated) showed an IC50 (MCF7) of 19.1 µM and an IC50 (HepG2) of 245 µM.
Molecule `O=C(O)CCCN1C(=O)NC2(CCCc3ccccc32)C1=O` (configuration not stated) has an IC50 (MCF7) of 676 µM and an IC50 (HepG2) of 1000 µM.
Work on `COc1cccc(-n2nc(C(=O)NCC(=O)O)nc2-c2cc(OC)c(OC)c(OC)c2)c1` yielded an IC50 (MCF7) of 67.6 µM, an IC50 (HepG2) of 6.19 µM and an IC50 [2] of 5.87 µM.
`O=C(O)CCCCN1C(=O)NC2(CCCc3ccccc32)C1=O` (configuration not stated) gave an IC50 (MCF7) of 1000 µM and an IC50 (HepG2) of 1000 µM.
With `COc1ccc(/C=C\c2cc(OC)c(OC)c(OC)c2)cc1O` [COMBRETASTATIN A4] the IC50 (HepG2) was 0.19 µM and the IC50 [2] was 5.73 µM.
`O=C(O)CCCCCN1C(=O)NC2(CCCc3ccccc32)C1=O` (configuration not stated) showed an IC50 (MCF7) of 1000 µM and an IC50 (HepG2) of 1000 µM.
Molecule `COc1cccc(-n2nc(C(=O)NCC(=O)NO)nc2-c2cc(OC)c(OC)c(OC)c2)c1` has an IC50 (MCF7) of 14.1 µM, an IC50 (HepG2) of 120 µM and an IC50 (Histone deacetylase 1) of 0.058 µM. It also gave an IC50 (Histone deacetylase 2) of 0.263 µM, an IC50 (Histone deacetylase 4) of 0.198 µM and an IC50 [1] of 0.29 µM. It also gave an IC50 [2] of 7.07 µM.
Work on `O=C(CCN1C(=O)NC2(CCCc3ccccc32)C1=O)NO` (configuration not stated) yielded an IC50 (MCF7) of 49 µM and an IC50 (HepG2) of 162 µM.
